# Assays:
# [1] = tested on: Male mice of the NMRI strain; assay: Marble-burying test in the mouse; assay type: in vivo; settings: s.c.; inhibition of spontaneous marble-burying, 30 minutes' free exploration
# Description: This test allows evaluation of the capacity of pharmacological agents to inhibit the spontaneous marble-burying behaviour of mice, the inhibition being predictive of antidepressant and/or anti-impulsive action. Male mice of the NMRI strain (Iffa-Credo, l'Arbresle, France) weighing from 20 to 25 g on the day of the experiment are placed individually in Macrolon boxes (30×18×19 cm) containing 5 cm of sawdust and covered with a perforated plexiglass plate. Twenty four “tiger's eye” glass marbles are evenly distributed on the sawdust at the periphery of the box. At the end of 30 minutes' free exploration, the animals are removed from the box and the number of buried marbles is counted.
# [2] = tested on: male Wistar rats; assay: Vogel conflict test; assay type: in vivo, rat; settings: s.c.; for Punished licks (1 shock/20 licks): 3 minutes of test
# Procedure: The test is carried out on male Wistar rats (IFFA-CREDO) weighing from 230 to 250 g, which are kept in groups of 4 on sawdust in cages in an animal house, with free access to food and drink, for 5 days before they are used, under the following conditions: temperature (21±1° C.), humidity (60±5%) and a 12 hour diurnal cycle (07:00 to 19:00 hours).
# On the Monday following their arrival, the animals are transferred to the experiment room where they stay until Friday, the day of the test. For 4 days, from Monday to Thursday inclusive, the animals have access to drink for only one hour per day (from 09:00 to 10:00 hours).
# On the day before the test, the animals are isolated from 15:00 hours in cages, on grills, without either food or drink.
# The test is carried out in a transparent plastics cage located in a soundproofed and ventilated enclosure. The cage has a chrome steel floor. The metal tip of the bottle containing the drink enters the cage at a height of 6 cm above the metal floor. The floor and the tip of the bottle are connected by electric cables to an apparatus which records the licks of the animal and controls the administration of electric shocks. The apparatus is so regulated that the animal receives an electric shock (between tip and metal floor) every 20 licks of the tip.
# On the day of the test, the animal is given an injection (s.c.) of physiological serum (control) or of the test product 30 minutes before being placed in the test cage. The session begins as soon as the animal has carried out 20 licks and received a first electric shock (duration 0.5 seconds, intensity 0.300 mA). For a period of 3 minutes, the animal receives an electric shock each time it carries out 20 licks.
# The results are the numbers of licks and of shocks received by the animal during the 3 minutes of the test.
# The numbers of licks and of shocks received by the treated animals are compared with those of the control animals by variance analysis, followed by a Dunnett's test with p<0.05. An anxiolytic product increases the number of licks and of shocks received by the animal compared with the controls. For information only, the average number of licks not punished in the animals which have been made thirsty is 674.9±44.5 (N=7) over 3 minutes.
# The effectiveness of a product is expressed by the minimum effective dose (MED), that is to say, the lowest dose producing a significant difference compared with the controls. That dose is 2.5 mg/kg s.c. for the product of Example 1.
structure (smiles),measurement,setting,value
"O=C(Nc1cccnc1)N1CCc2cc3c(cc21)CC3 [Example 1, N-(3-Pyridyl)-2,3,5,6-tetrahydro-1H-cyclobuta[f]indole1-carboxamide]",MED (minimum effective dose),[1],2.5 mg/kg
same,Punished licks (1 shock/20 licks),"[2]; dose 0.63 mg/kg, N=8",197.5 ± 59.5
same,Punished licks (1 shock/20 licks),"[2]; dose 2.5 mg/kg, N=8, *p < 0.05",560.1 ± 67.0*
same,Punished licks (1 shock/20 licks),"[2]; dose 10.0 mg/kg, N=7, *p < 0.05",499.3 ± 95.3*
same,minimum effective dose (MED),"[2]; 30 minutes before test, lowest dose producing a significant difference compared with the controls (p<0.05)",2.5 mg/kg

# Source: patent US6743818B2, “Cyclobutaindolecarboxamide compounds” (Les Laboratoires Servier, priority 2000, dated 2004)
